Reference: US4970077A, “6-substituted-4-hydroxytetrahydropyran-2-one derivatives and pharmaceutical compositions containing them” (Boehringer Mannheim GmbH, priority 1988, dated 1990)

What was measured:
HMG-CoA reductase [1] = molecular target: T1, HMG-CoA reductase (Rattus norvegicus, UniProt P51639); assay: Inhibition of HMG-CoA reductase in a microsome fraction from rat liver; format: biochemical; settings: rat liver microsomes; for HMG-CoA-reductase Inhibition in %: concentration not given, method: 10^-4 M or 10^-5 M
T1 construct: microsomes from rat livers; from tissue; host or cells: liver of cholestyramine-treated rats (reversed day/night rhythm), microsome fraction
T1 sequence (P51639 1-887): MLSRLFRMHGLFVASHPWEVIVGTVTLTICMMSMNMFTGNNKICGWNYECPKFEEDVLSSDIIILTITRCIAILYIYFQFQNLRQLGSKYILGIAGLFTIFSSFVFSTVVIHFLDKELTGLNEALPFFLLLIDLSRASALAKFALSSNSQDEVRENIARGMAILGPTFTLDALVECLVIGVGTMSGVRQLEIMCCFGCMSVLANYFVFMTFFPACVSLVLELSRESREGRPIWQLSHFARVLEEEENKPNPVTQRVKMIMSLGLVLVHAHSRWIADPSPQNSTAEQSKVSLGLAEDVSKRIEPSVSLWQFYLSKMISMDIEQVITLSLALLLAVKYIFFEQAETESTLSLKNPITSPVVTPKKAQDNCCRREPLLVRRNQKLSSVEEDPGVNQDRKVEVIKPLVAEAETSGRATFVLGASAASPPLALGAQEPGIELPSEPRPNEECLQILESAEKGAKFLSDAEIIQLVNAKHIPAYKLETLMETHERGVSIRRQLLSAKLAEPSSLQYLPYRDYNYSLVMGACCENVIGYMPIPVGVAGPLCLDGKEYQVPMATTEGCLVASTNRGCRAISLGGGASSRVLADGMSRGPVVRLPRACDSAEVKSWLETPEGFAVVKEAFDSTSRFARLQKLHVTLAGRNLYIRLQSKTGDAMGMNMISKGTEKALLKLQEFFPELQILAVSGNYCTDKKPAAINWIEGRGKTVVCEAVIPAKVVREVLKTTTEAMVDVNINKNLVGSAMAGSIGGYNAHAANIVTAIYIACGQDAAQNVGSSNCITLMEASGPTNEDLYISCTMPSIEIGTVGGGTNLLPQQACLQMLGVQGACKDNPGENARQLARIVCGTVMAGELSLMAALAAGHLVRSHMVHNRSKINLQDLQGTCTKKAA
Excerpt: Inhibition of HMG-CoA reductase in a microsome fraction from rat liver
For the determination of the HMG-CoA reductase activity, microsomes from rat livers, which had been treated for 7 days in the case of reversed day/night rhythm with cholestyramine, were separated by centrifuging. The action of the test compounds at a concentration of 10^-4 M or 10^-5 M on the formation of mevalonate from (S,R) ^14 C--HMG--CoA was investigated. The experimental conditions are described in detail by J. Huber. S. Latzien and B. Hamprecht, Hoppe-Seylers Z. Physiol. Chem., 354, 1654/1973.

HMG-CoA reductase [2] = settings: literature: Endo 1976; Alberts 1980; cited from earlier work

| HMG-CoA-reductase Inhibition in % (HMG-CoA reductase [1]) [%] | Structure (SMILES) | competitive inhibition of HMG-CoA reductase (in words) (HMG-CoA reductase [2]) | also measured |
| --- | --- | --- | --- |
| 93 | O=C1C[C@H](O)C[C@@H](/C=C/c2c(Cl)cccc2C2CCCCCC2)O1 (relative stereo) [2 (b)] | – | – |
| 95 | O=C1C[C@H](O)C[C@@H](/C=C/c2c(Cl)cc(Cl)cc2C2CCCCCC2)O1 (relative stereo) [2 (a)] | – | – |

Second part, the compound before the results:

| Structure (SMILES) | HMG-CoA-reductase Inhibition in % (HMG-CoA reductase [1]) [%] | competitive inhibition of HMG-CoA reductase (in words) (HMG-CoA reductase [2]) | also measured |
| --- | --- | --- | --- |
| O=C1C[C@H](O)C[C@@H](/C=C/c2c(Cl)cc(Cl)cc2C2CCCCC2)O1 (relative stereo) [2 (c)] | 90 | – | – |
| CC[C@H](C)C(=O)O[C@H]1C[C@@H](C)C=C2C=C[C@H](C)[C@H](CC[C@@H]3C[C@@H](O)CC(=O)O3)[C@H]21 [mevinolin] | – | competitively to inhibit HMG-CoA reductase | – |
| O=C1C[C@H](O)C[C@@H](/C=C/c2ccccc2C2=CCCCC2)O1 (relative stereo) [2 (i)] | – | – | inhibition at 100 µM (HMG-CoA reductase [1]; 10^-4 M): 63% |
| CC[C@H](C)C(=O)O[C@H]1CCC=C2C=C[C@H](C)[C@H](CC[C@@H]3C[C@@H](O)CC(=O)O3)[C@H]21 [compactin A] | – | competitively to inhibit HMG-CoA reductase | – |
